Experimental findings from US20240336608A1, “IL4I1 INHIBITORS AND METHODS OF USE” (Merck Sharp & Dohme LLC, priority 2023, published 2024) are described below.

The assay deals with T1, recombinant IL4I1 (Homo sapiens, UniProt Q96RQ9).
T1 construct: purchased R&D Systems 5684-AO-020
T1 sequence (Q96RQ9 22-567): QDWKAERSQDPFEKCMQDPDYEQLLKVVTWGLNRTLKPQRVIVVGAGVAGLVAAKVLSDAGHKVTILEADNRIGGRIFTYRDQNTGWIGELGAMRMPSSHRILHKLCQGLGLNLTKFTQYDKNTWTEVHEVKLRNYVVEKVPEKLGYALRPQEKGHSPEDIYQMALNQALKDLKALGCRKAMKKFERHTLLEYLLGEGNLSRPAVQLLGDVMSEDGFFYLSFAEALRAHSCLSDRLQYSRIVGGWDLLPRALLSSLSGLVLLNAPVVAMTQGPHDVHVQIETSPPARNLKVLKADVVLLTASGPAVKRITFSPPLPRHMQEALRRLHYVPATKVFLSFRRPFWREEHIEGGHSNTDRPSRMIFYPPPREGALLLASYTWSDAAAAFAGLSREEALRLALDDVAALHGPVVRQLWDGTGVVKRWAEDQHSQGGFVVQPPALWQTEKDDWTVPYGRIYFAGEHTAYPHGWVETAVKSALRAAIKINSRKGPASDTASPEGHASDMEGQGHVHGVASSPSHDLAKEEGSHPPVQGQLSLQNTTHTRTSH
In words: IL4I1 Enzymatic Assay (Amplex Red/HRP coupled detection of H2O2, fluorescence). It counts as biochemical. The conditions noted are these: 1 nM recombinant IL4I1; four-hour pre-incubation with compound; 1 mM each Phe, Tyr, Trp; ten-point titration. As to the method: Interleukin 4 inducible protein 1 (IL4I1) is an L-amino oxidase that catalyzes the oxidation of aromatic residues (Phe, Trp and Tyr): L-amino acid+H2O+O2→2-oxo acid+NH3+H2O2. Equal molar of H2O2 and the corresponding alpha-ketoacid are produced when IL4I1 and substrate are added. In this assay, the hydrogen peroxide generated by IL4I1 is then detected through a coupled reaction with Amplex Red (10-acetyl-3,7-dihydroxyphenoxazine) and […] (HRP) to produce Resorufin product that could be detected in the form of fluorescence signals. The assessment of the inhibitory effect of small molecules (EC50) on IL4I1 is measured by the effectiveness of the compounds to inhibit the production of H202.
Using this assay, the potency (EC50) of each compound was determined from a ten-point (1:3 serial dilution) titration curve using the following outlined procedure. To each well of a black flat-bottom Greiner (Cat #781076) 384 well-plate, 125 nL of compound (0.5% DMSO in final assay volume of 25 μL) was dispensed, followed by the addition of 12.5 μL of 1× assay buffer (50 mM Hepes 7.0 and 0.005% Tween20 (Sigma, Cat #P8341; low peroxide grade)) containing 2 nM of recombinant IL4I1 (R&D Systems, Cat #5684-AO-020). Plates were placed in an ambient temperature humidified chamber for a four-hour pre-incubation with compound. Subsequently, each reaction was initiated by the addition of 12.5 μL 1× assay buffer containing 2 mM of each aromatic amino acids (Phe/Tyr/Trp), 0.1 mM Amplex Red and 2 U/mL of HRP. The final reaction in each well of 25 μL consists of 1 nM of IL4I1, 1 mM of each residue (Phe, Tyr and Trp), 0.05 mM Amplex Red and 1 U/mL of HRP. It should be noted that the concentrations of Amplex Red and HRP used here are in excess such that the conversion of H2O2 to Resorufin product occurs instantaneously and non-rate limiting. Reactions were allowed to proceed for 120 minutes followed by fluorescence readout on a Spectramax with the following set parameters: 544 nm excitation/590 nm emission, 570 nm cutoff (EnVision is an alternative reader). Dose-response curves were generated by plotting percent effect (% inhibition; Y-axis) vs. Log10 compound concentrations (X-axis). EC50 values were calculated using a non-linear regression, four-parameters sigmoidal dose-response model and are shown in Table 16.

In general, EC50 refers to the concentration that produces a half-maximal response.

Consider `CC(C#N)n1cc(C(=O)NCc2cc(-c3ccncc3)on2)nn1` (single isomer, unassigned) [Example 276, 1-(1-cyanoethyl)-N-((5-(pyridin-4-yl)isoxazol-3-yl)methyl)-1H-1,2,3-triazole-4-carboxamide], for which the EC50 came to 0.113 µM.
As to `CC(C#N)n1cc(C(=O)NCc2cc(-c3ccncc3)no2)nn1` (single isomer, unassigned) [Example 285, 1-(1-cyanoethyl)-N-((3-(pyridin-4-yl)isoxazol-5-yl)methyl)-1H-1,2,3-triazole-4-carboxamide], the EC50 was 0.184 µM.
Consider `CC(C#N)n1cc(C(=O)NCc2cc(-c3ccncc3)no2)nn1` (single isomer, unassigned) [Example 286, 1-(1-cyanoethyl)-N-((3-(pyridin-4-yl)isoxazol-5-yl)methyl)-1H-1,2,3-triazole-4-carboxamide], for which the EC50 amounted to 0.072 µM.
`CC(C(N)=O)n1cc(C(=O)NCc2nnc(-c3ccccc3)s2)nn1` (single isomer, unassigned) [Example 318, 1-(1-amino-1-oxopropan-2-yl)-N-((5-phenyl-1,3,4-thiadiazol-2-yl)methyl)-1H-1,2,3-triazole-4-carboxamide]: the EC50 stood at 0.209 µM.
Then `CC(C(N)=O)n1cc(C(=O)NCc2nnc(-c3ccccc3)s2)nn1` (single isomer, unassigned) [Example 319, 1-(1-amino-1-oxopropan-2-yl)-N-((5-phenyl-1,3,4-thiadiazol-2-yl)methyl)-1H-1,2,3-triazole-4-carboxamide], with 0.008 µM; and `CC(O)c1cc(C(=O)NCc2nnc(-c3ccccc3)s2)on1` (single isomer, unassigned) [Example 329, 3-(1-hydroxyethyl)-N-((5-phenyl-1,3,4-thiadiazol-2-yl)methyl)isoxazole-5-carboxamide], with 0.149 µM; and `CC(O)c1cc(C(=O)NCc2nnc(-c3ccccc3)s2)on1` (single isomer, unassigned) [Example 330, 3-(1-hydroxyethyl)-N-((5-phenyl-1,3,4-thiadiazol-2-yl)methyl)isoxazole-5-carboxamide], with 0.069 µM.
Next, `Cc1ccc(-n2cc(C(=O)NCc3ccc(-n4nccn4)nn3)nn2)c(C)n1` (single isomer, unassigned) [Example 344, N-((6-(2H-1,2,3-triazol-2-yl)pyridazin-3-yl)methyl)-1-(2,6-dimethylpyridin-3-yl)-1H-1,2,3-triazole-4-carboxamide]: 0.067 µM; `Cc1ccc(-n2cc(C(=O)NCc3ccc(-n4ccnn4)nn3)nn2)c(C)n1` (single isomer, unassigned) [Example 345, N-((6-(1H-1,2,3-triazol-1-yl)pyridazin-3-yl)methyl)-1-(2,6-dimethylpyridin-3-yl)-1H-1,2,3-triazole-4-carboxamide]: 0.175 µM.
In the case of `CC(NC(=O)c1cn(CC(F)F)nn1)c1ccc(-c2ccccc2)nn1` (single isomer, unassigned) [Example 348, 1-(2,2-difluoroethyl)-N-(1-(6-phenylpyridazin-3-yl)ethyl)-1H-1,2,3-triazole-4-carboxamide], the EC50 worked out at 0.88 µM.
Next, `CC(NC(=O)c1cn(CC(F)F)nn1)c1ccc(-c2ccccc2)nn1` (single isomer, unassigned) [Example 349, 1-(2,2-difluoroethyl)-N-(1-(6-phenylpyridazin-3-yl)ethyl)-1H-1,2,3-triazole-4-carboxamide]: 0.014 µM; `O=C(NCc1nnc(-c2ccccc2)s1)c1cn([C@@H]2COC[C@H]2CO)nn1` (stereo in doubt) [Example 147, 1-[(3S,4R)-4-(hydroxymethyl)oxolan-3-yl]-N-[(5-phenyl-1,3,4-thiadiazol-2-yl)methyl]-1H-1,2,3-triazole-4-carboxamide]: 0.325 µM; `Cc1ccc(-n2cc(C(=O)NCc3nnc(-c4ccccc4)s3)nn2)c(C)n1` [Example 1, 1-(2,6-dimethylpyridin-3-yl)-N-((5-phenyl-1,3,4-thiadiazol-2-yl)methyl)-1H-1,2,3-triazole-4-carboxamide]: 0.015 µM.
Then `CC(C)c1cc(C(=O)NCc2nnc(-c3ccccc3)s2)n[nH]1` [Example 2, 5-isopropyl-N-[(5-phenyl-1,3,4-thiadiazol-2-yl)methyl]-1H-pyrazole-3-carboxamide], with 0.197 µM; and `CC(O)c1cc(C(=O)NCc2nnc(-c3ccccc3)s2)no1` (stereo not drawn) [Example 3, 5-(1-hydroxyethyl)-N-[(5-phenyl-1,3,4-thiadiazol-2-yl)methyl]isoxazole-3-carboxamide], with 0.009 µM; and `O=C(NCc1nnc(-c2ccccc2)s1)c1cc(CO)n[nH]1` [Example 4, 3-(hydroxymethyl)-N-((5-phenyl-1,3,4-thiadiazol-2-yl)methyl)-1H-pyrazole-5-carboxamide], with 0.069 µM.
Turning to `O=C(NCc1nnc(-c2ccccc2)s1)c1cn([C@H]2CO[C@H]3[C@@H]2OC[C@H]3O)nn1` [Example 5, 1-[(3S,3aR,6R,6aR)-6-hydroxy-2,3,3a,5,6,6a-hexahydrofuro[3,2-b]furan-3-yl]-N-[(5-phenyl-1,3,4-thiadiazol-2-yl)methyl]triazole-4-carboxamide], the EC50 turned out to be 0.164 µM.
Then `O=C(NCc1nnc(-c2ccccc2)s1)c1cc2c(s1)CCC2` [Example 6, N-[(5-phenyl-1,3,4-thiadiazol-2-yl)methyl]-5,6-dihydro-4H-cyclopenta[b]thiophene-2-carboxamide], with 0.062 µM; and `CC(C)Cc1cc(C(=O)NCc2nnc(-c3ccccc3)s2)no1` [Example 7, 5-isobutyl-N-[(5-phenyl-1,3,4-thiadiazol-2-yl)methyl]isoxazole-3-carboxamide], with 0.008 µM.
Next, `CCOc1ccsc1C(=O)NCc1nnc(-c2ccccc2)s1` [Example 8, 3-ethoxy-N-[(5-phenyl-1,3,4-thiadiazol-2-yl)methyl]thiophene-2-carboxamide]: 0.003 µM; `CC(C)(C)c1cc(C(=O)NCc2nnc(-c3ccccc3)s2)[nH]n1` [Example 9, 3-(tert-butyl)-N-((5-phenyl-1,3,4-thiadiazol-2-yl)methyl)-1H-pyrazole-5-carboxamide]: 0.48 µM.
Next, `Cc1csc(C(=O)NCc2nnc(-c3ccccc3)s2)c1` [Example 10, 4-methyl-N-[(5-phenyl-1,3,4-thiadiazol-2-yl)methyl]thiophene-2-carboxamide]: 0.01 µM.
Regarding `O=C(NCc1nnc(-c2ccccc2)s1)c1c[nH]c(C2CC2)n1` [Example 11, 2-cyclopropyl-N-((5-phenyl-1,3,4-thiadiazol-2-yl)methyl)-1H-imidazole-4-carboxamide], the EC50 was 0.265 µM.
Turning to `Cc1ccc(C(=O)NCc2nnc(-c3ccccc3)s2)s1` [Example 12, 5-methyl-N-[(5-phenyl-1,3,4-thiadiazol-2-yl)methyl]thiophene-2-carboxamide], the EC50 was found to be 0.09 µM.
As for `Cc1cccn2cc(C(=O)NCc3nnc(-c4ccccc4)s3)nc12` [Example 13, 8-methyl-N-((5-phenyl-1,3,4-thiadiazol-2-yl)methyl)imidazo[1,2-a]pyridine-2-carboxamide], the EC50 amounted to 0.341 µM.
For `Cn1ccc(C(=O)NCc2nnc(-c3ccccc3)s2)n1` [Example 14, 1-methyl-N-[(5-phenyl-1,3,4-thiadiazol-2-yl)methyl]pyrazole-3-carboxamide], the EC50 amounted to 0.291 µM.
Turning to `Cc1ccsc1C(=O)NCc1nnc(-c2ccccc2)s1` [Example 15, 3-methyl-N-[(5-phenyl-1,3,4-thiadiazol-2-yl)methyl]thiophene-2-carboxamide], the EC50 was found to be 0.153 µM.
